What was measured:
SHP2cat = SHP2cat (Homo sapiens (Human), UniProt Q06124); assay: OMFP fluorescence intensity inhibition assay, SHP2cat; assay type: biochemical; details: OMFP at Km (50 μM); read-out: IC50 against SHP2cat with OMFP
Source text: We confirmed specific and dose-dependent binding of inhibitors to SHP2 by protein thermal shift, which monitors the thermal stability of a target protein in vitro. […] In addition, we confirmed the inhibitory activity of several furanylbenzamide inhibitors, including the top two compounds #02 and #01, in SHP2cat inhibition assays using the alternative substrate 3-O-methylfluorescein phosphate (OMFP), which features a peak fluorescence emission that is red-shifted by […] compared to DiFMUP. The Km value of OMFP for SHP2cat was determined to be 50 μM. An OMFP fluorescence intensity-based assay was used to perform inhibitor dose-response experiments and determine IC50 values.
SHP2 inhibitors were tested at room temperature (RT) in a 384-well plate format standard phosphatase fluorescence intensity assay using DiFMUP (Invitrogen/Thermo Fisher Scientific, Carlsbad, CA) as a substrate and a total reaction volume of 25 μL. […] Fluorescence intensity was measured in kinetic mode (every minute for 7 or 10 min) using a Tecan Spark® Multimode Microplate Reader (Tecan, Groedig, Austria) with an excitation wavelength of 360 nm and an emission wavelength of 460 nm. The initial rates were determined from the linear progression curves of the PTP reaction. […] Initial rates were determined and IC50 vales calculated as described above.

[1] = tested on: MOLM-13-Cas9-mCherry cells with SHP2 KO; assay: SHP2 CRISPR-Cas9 knockout inhibitor selectivity assay (cell viability); assay type: cell-based; details: MOLM-13-Cas9-mCherry SHP2 KO cells, 72 h
Experimental: Finally, we evaluated the selectivity of our top two compounds, #01 and #02, on MOLM-13 AML cells in which SHP2 was depleted using CRISPR-Cas9 knock-out (KO). High-efficiency Cas9-editing MOLM-13 cells were generated by transducingMOLM-13 cells with a Cas9 lentiviral construct. Stable clones were tested for editing efficiency by performing TIDE analysis (45), and these MOLM13-Cas9 cells were transduced with a lentiviral construct containing an AAVS1 single guide RNA (sgRNA) and an mCherry reporter for bulk-sorting of cells with successful AAVS1 editing. SHP2 KO was achieved by transducing MOLM-13-Cas9-mCherry cells with a lentivirus containing SHP2 dual sgRNAs, resulting in ˜80% reduction of SHP2 protein levels (FIG. 3G). #01, #02, and the SHP2 allosteric inhibitor SHP099 were tested in parallel on regular MOLM-13 cells (expressing WT SHP2) and MOLM-13-Cas9-mCherry cells with SHP2 KO. Cells were treated with inhibitors at various concentrations (ranging from […] to 58 nM) or vehicle control (DMSO) for 72 h, before cell viability was assessed.
High-efficiency Cas9-editing MOLM-13 cells were generated by transducing MOLM-13 cells with the pLenti-Cas9-blasticidin construct (Addgene plasmid #52962) and selecting single stable clones using flow-sorting. Clones were then tested for editing efficiency by performing TIDE analysis (45). These MOLM13-Cas9 cells were then transduced with a lentiviral construct containing an AAVS sgRNA and an mCherry reporter out of frame and downstream of an AAVS sgRNA targeting site. […]
For SHP2 KO, dual sgRNAs targeting SHP2 were cloned in the pLentiGuide puro vector (Addgene plasmid #52963) using a published protocol (50). […] SHP2 KO was evaluated by immunoblotting. […] For SHP2 KO, MOLM-13-Cas9-mCherry cells were seeded in nontreated 6-well-plates ([…] in 2.5 mL), with cell numbers determined by trypan blue using the Countess Cell counter (Thermo Scientific). […] Cell viability was assessed using the ATP-depletion assay CellTiter-Glo® (Promega) as described above, and data were analyzed using GraphPad Prism software.

[2] = tested on: MLL-AF10 leukemia cells expressing E76K mutant SHP2; assay: Cell viability assay, MLL-AF10 cells expressing E76K mutant SHP2; assay type: cell-based, mouse; details: Mus musculus
Experimental: Cell viability assays of SHP099, #01, and #02 against mouse MLL-AF10 leukemia cells were conducted. Two MLL-AF10 cell lines were employed, one expressing wild-type SHP2, and the other expressing E76K mutant SHP2.

SHP2cat, sequence (Q06124 248-527): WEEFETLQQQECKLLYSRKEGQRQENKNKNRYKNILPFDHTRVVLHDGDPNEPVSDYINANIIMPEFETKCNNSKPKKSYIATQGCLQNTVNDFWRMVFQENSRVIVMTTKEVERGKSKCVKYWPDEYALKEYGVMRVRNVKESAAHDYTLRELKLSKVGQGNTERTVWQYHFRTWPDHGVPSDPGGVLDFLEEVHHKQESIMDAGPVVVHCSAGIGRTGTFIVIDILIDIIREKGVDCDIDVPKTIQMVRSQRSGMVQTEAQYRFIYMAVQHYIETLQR

| SMILES | IC50 (SHP2cat) [nM] | effect on viability of SHP2 KO cells [1] | IC50 [2] [nM] |
| --- | --- | --- | --- |
| Nc1ccc(NC(=O)c2cc(-c3ccc(/C=C4\Sc5ccccc5C4=O)o3)ccc2O)cc1 [#01, (Z)—N-(4-Aminophenyl)-2-hydroxy-5-(5-((3-oxobenzo[b]thiophen-2(3H)-ylidene)methyl)furan-2-yl)benzamide] | 1200 | either no effect, or a greatly reduced effect | 2000 |
| O=C(Nc1ccccc1)c1cc(-c2ccc(/C=C3\Sc4ccccc4C3=O)o2)ccc1O [#02, (Z)-2-hydroxy-5-(5-((3-oxobenzo[b]thiophen-2(3H)-ylidene)methyl)furan-2-yl)-N-phenylbenzamide] | 440 | either no effect, or a greatly reduced effect | 3000 |
